The source of these data is publication PMC5118709, “Identification of Polo-like kinase 1 interaction inhibitors using a novel cell-based assay” (Scientific Reports, 2016).

One experiment addresses T1, CRAF-BRAF (Homo sapiens, UniProt P04049+P15056).
T1 construct: expressed in transfected cells; host or cells: HEK293T, transient transfection with PEI
The experiment is described as follows: control BRET CRAF-BRAF (transient). In kind it is cell-based. Here is the method:
(§1) We used our cell-based assay to screen a library of 112 983 compounds available in-house at IRIC’s High-Throughput Screening (HTS) platform (see Materials & Methods). Compounds were tested on cells in 384-well plates at concentrations between 10 μM and 25 μM, depending on their concentration in the original stocks solutions. BRET readings were taken 2 hours after treatment. Results obtained show a tight, close to normal distribution centered around zero inhibition relative to DMSO-treated controls (Fig. 1D). Compounds inducing at least 30% BRET inhibition were selected. From these, auto-fluorescent compounds and those that induced more than 90% reduction in RLucII luminescence were removed, leaving 800 primary hits, that we then re-tested using the same assay. In parallel, we tested these compounds in a control BRET assay for an unrelated pair of interacting proteins (BRAF-CRAF[46]) to exclude false-positive compounds that could reduce the BRET signal by interfering with light or by modifying the activity of GFP or Luc.
For the confirmation screen, the same procedure as for the primary screen was followed, except that HEK293T cells were also seeded at 6.25 millions of cells per simple CellStack on day 1 for transient transfections. These cells were transfected on day 3 with Luc-Map (5 μg) and Plk1-GFP (25 μg) pIRESHyg3 plasmids using polyethylenimine (PEI). To identify false-positives compounds, Luc-CRAF (4 μg) and GFP-BRAF (20 μg) plasmids were also transfected with PEI following the published procedure.

Another experiment relates to HeLa cells. Put plainly: mitotic index assay (phospho-Histone H3) in HeLa cells. The class given is cell-based. As to conditions: 10-25 μM, 7 h.
The target in a further experiment is PBD of Plk1 (Homo sapiens, UniProt P53350). The experiment is described as follows: fluorescence polarization assay PBD-Map peptide. In kind it is binding. Here is the method: The FP buffer was composed of 10 mM Tris pH 8.0, 50 mM NaCl, 1 mM EDTA, 20% glycerol and 0.1% NP-40. The peptide (final concentration 10 nM) was always added to the wells of non-binding, black, 384-well plates, 1 hour after the addition of the protein with the buffer (+/− treatment, 10% DMSO). […] EC65s were used to perform the competitive assays with the non-labeled peptides and with the inhibitors. FP Inhibition was calculated with the formula: 100 − [((mPsample − mPfree peptide)\(mPDMSO − mPfree peptide)) × 100]. […] (Map peptide), and corresponding non-labeled peptides are identical but without FITC in N-terminal. […] Inhibition curves were fitted with GraphPad (Prism software).
Sequence of PBD of Plk1 (P53350 367-603 limits assumed): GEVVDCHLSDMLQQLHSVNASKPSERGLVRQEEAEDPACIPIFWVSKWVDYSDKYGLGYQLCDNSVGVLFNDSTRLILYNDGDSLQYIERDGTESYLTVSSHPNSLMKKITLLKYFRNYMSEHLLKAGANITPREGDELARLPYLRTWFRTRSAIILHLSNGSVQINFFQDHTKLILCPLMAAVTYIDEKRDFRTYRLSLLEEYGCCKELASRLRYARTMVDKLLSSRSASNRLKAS
A general note: In fluorescence polarisation assays a small probe gives low polarisation when free and higher when bound to something large.

Another experiment concerns the target GST-PBD367-603 of Plk1 (Homo sapiens, UniProt P53350). The experiment is described as follows: fluorescence polarization assay PBD-phosphopeptide.
The next experiment deals with HEK293T cells. Put plainly: mitotic index assay (phospho-Histone H3) in HEK293T cells. As to conditions: 10 μM.
The target in the next experiment is Plk1-Map interaction (Homo sapiens, UniProt P53350). The experiment is described as follows: BRET Plk1-Map, stable HEK293T Plk1-Luc/GFP-Map cell line. The class given is cell-based. On the set-up: cDNAs for the human full length Plk1; expressed in transfected cells.
Sequence of Plk1-Map interaction (P53350 whole entry): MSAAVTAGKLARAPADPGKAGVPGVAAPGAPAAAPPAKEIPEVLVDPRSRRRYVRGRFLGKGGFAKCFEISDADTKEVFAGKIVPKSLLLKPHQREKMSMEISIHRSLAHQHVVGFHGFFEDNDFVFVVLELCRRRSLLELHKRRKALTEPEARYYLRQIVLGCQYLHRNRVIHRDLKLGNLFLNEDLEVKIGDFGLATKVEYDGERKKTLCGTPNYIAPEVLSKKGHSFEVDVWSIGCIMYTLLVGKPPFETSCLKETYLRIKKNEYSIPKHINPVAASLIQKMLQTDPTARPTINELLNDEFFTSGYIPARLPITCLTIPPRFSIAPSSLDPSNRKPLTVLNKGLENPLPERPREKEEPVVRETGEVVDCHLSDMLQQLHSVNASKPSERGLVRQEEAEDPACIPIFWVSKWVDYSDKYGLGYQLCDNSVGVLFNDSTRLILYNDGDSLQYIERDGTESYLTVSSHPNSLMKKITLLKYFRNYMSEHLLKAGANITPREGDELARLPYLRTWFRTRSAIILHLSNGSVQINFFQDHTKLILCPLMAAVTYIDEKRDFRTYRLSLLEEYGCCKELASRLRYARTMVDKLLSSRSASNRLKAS
Excerpt: To develop a cell-based assay for the identification of Plk1 interaction inhibitors, we used Bioluminescence Resonance Energy Transfer (BRET)[42][43]. The assay monitors the interaction in HEK293T cells between Plk1 and Map205, a protein that we previously identified as an interactor of Drosophila Polo (Plk1 ortholog) on its PBD[44]. Although no ortholog of Drosophila Map205 has been found in vertebrates, this protein robustly interacts with vertebrate Plk1. […] Importantly, crystallography with zebrafish Plk1 has recently shown that Map205 nevertheless docks in the canonical phosphopeptide binding site of the PBD, with the natural phospho-mimetic Glu314 residue (Fig. 1A)[45]. In our assay, human Plk1 and a fragment of Drosophila Map205 (Map205_254-416 = Map) are respectively fused to Renilla luciferase II (Luc) and GFP10 (GFP), giving rise to energy transfer when the proteins are in close proximity (Fig. 1B). […] All combinations of Plk1 and Map tagged with Luc and GFP were tested (Supplementary Fig. S1). The Plk1-Luc/GFP-Map combination was selected because it yielded the highest BRET dynamic window. We then generated clonal stable cell lines co-expressing these two fusion proteins. These cell lines behaved very similarly to each other in BRET, and we selected one line that gave a high and reproducible BRET signal, with a Z′ score of 0.78, indicative of a robust assay for the purpose of a chemical screen (Supplementary Fig. S1).
as §1
For BRET on transiently transfected cells, 48 hours after the transfection, medium was removed, cells were washed twice with PBS, and then Tyrode solution (140 mM NaCl, 2.7 mM KCl, 12 mM NaHCO3, 5.6 mM D-glucose, 0.49 mM MgCl2, 0.37 mM NaH2PO4, 25 mM HEPES, pH 7.4, where 1 mM CaCl2 was freshly added) was added to the cells. Total fluorescence was first measured using a FlexStation II microplate reader (Molecular Devices), where the GFP10 was excited at 400 nm and read at 510 nm. Then, cells were treated for 5 minutes with 2.5 μM coelenterazine 400a (Gold Technology) before reading BRET2 using the Mithras LB940 microplate reader (Berthold Technologies). BRET2 signal corresponds to the light emitted by the GFP10 acceptor constructs (515 nm ± 20 nm) divided by the light emitted by the RlucII donor constructs (400 nm ± 70 nm). Net BRET2 was calculated by subtracting the background BRET ratio of the RLucII plasmid alone from the BRET ratio obtained by the two BRET partners. The Net BRET2 was plotted according to the GFP10/RLucII ratio, which was obtained by dividing the total fluorescence by the RLucII emission.
For the high throughput chemical screen, cells were amplified and frozen as multiple 1 ml aliquots containing 25 millions of stable HEK293T Plk1-Luc/GFP-Map cells to ensure that cells at the same passage number are used during the screen. […] Five days later, cells were counted and re-suspended in Tyrode solution. […]
On the technique in general: BRET reads energy transfer from a luciferase to a nearby fluorophore.

“And” between values parts separate entries of the source, which are not always exact repeats. Equal entries are not always repeated.

One may read the IC50 as the concentration at which inhibition is half-maximal. Low values mean greater potency, high ones weaker potency.

T1 sequence (P04049 whole entry): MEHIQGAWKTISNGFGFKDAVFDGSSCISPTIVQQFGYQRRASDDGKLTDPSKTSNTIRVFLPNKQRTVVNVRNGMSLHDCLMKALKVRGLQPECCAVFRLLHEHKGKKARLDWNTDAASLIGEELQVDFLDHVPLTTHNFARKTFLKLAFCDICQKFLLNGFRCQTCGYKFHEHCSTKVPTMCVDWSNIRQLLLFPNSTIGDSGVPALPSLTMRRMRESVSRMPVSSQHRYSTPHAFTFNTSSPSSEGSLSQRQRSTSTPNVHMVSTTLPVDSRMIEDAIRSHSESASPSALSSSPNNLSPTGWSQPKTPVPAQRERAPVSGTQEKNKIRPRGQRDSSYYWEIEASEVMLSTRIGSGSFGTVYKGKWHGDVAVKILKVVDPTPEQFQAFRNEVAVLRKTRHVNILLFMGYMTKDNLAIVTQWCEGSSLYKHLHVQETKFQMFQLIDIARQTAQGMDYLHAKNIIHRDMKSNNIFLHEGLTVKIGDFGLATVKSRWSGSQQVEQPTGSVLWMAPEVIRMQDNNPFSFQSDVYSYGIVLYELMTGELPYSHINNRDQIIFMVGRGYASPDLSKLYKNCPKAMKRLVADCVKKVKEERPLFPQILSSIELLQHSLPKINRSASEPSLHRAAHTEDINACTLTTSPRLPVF
T1 sequence (P15056 whole entry): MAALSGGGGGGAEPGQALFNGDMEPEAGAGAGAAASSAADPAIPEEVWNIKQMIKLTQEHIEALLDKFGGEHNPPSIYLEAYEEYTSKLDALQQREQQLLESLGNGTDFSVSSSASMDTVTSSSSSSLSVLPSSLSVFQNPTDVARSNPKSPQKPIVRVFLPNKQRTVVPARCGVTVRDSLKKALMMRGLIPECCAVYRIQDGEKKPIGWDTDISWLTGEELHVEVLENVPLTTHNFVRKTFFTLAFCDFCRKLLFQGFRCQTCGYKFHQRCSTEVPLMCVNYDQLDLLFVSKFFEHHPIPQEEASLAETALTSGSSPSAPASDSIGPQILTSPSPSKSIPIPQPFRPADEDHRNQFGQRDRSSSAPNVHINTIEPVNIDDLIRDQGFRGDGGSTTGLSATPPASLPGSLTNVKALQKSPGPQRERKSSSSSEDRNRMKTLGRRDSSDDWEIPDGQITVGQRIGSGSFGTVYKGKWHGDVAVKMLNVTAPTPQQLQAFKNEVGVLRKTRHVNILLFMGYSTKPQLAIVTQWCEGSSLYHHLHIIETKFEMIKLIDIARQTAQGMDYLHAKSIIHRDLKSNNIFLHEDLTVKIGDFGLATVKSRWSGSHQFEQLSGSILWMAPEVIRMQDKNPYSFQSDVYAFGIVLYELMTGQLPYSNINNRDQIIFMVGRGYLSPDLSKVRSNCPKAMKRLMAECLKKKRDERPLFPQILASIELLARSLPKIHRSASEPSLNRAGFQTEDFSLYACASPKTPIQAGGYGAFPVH
Sequence of GST-PBD367-603 of Plk1 (P53350 367-603): as the sequence (P53350 367-603 limits assumed) above
Excerpt for GST-PBD367-603 of Plk1: In this assay, an optimal phosphopeptide for PBD binding is coupled with a FITC fluorophore and its binding to purified recombinant PBD of Plk1 is monitored by the change in polarization of incident light.
Description for HEK293T cells: For the mitotic index assay, 4000 HeLa cells or 5000 HEK293T cells per well were seeded in a 96-well plate. The day after, cells were incubated for 7 hours with different compounds, and then fixed by adding formaldehyde (4% final concentration) directly to each well. Plates were incubated 20 minutes at 37 °C, and then wells were rinsed three times with TBS-Tween 0.1%. A 1 hour block with PHEM buffer (60 mM Pipes, 25 mM HEPES, 10 mM EGTA, 4 mM MgSO4, pH 6.9) containing 2% BSA and 0.1% triton was performed, before addition of the primary antibody to the wells. The anti-phospho-Histone H3 (Ser10) antibody (EMD Millipore) was diluted 1:300 in PHEM buffer containing 2% BSA and added to the wells for 2 hours at room temperature in the dark. […] Plates were incubated for 1h 30 at room temperature in the dark, and then wells were washed 3 times with TBS-Tween 0.1%. A solution of Mowiol containing DAPI was finally added to the wells. Plates were kept at 4 °C in the dark until imaging using the 20x objective on an Operetta system (Perkin Elmer inc.). The mitotic index, corresponding to the percentage of pHH3 positive cells relative to the total number of DAPI-stained cells detected was calculated by the Operetta using the Harmony 3.5 software. Experiments were done in triplicates.

Regarding `Cc1cc(C(F)(F)F)cc(S(=O)(=O)CCOC(=O)c2cccc(Cl)c2)n1` [Cpd 16, 2-((6-methyl-4-(trifluoromethyl)pyridin-2-yl)sulfonyl)ethyl 3-chlorobenzoate], on CRAF-BRAF (10-25 μM), the “Primary screen CRAF-BRAF (transient) % Inihibition” value came out at 52.83% and the “Primary screen CRAF-BRAF (transient) % Quench RLuc” value amounted to 88.39%. At CRAF-BRAF (confirmation screen), the “Confirmation CRAF-BRAF (transient) % Inihibition” value is 0.37% and the “Confirmation CRAF-BRAF (transient) % Quench RLuc” value was found to be 80.17%. The “Mitotic index (%)” value in the experiment on HeLa cells is listed as 15.73%. Besides, at PBD of Plk1, the “disruption of the PBD-Map interaction in FP” value is recorded as “disrupted the PBD-Map interaction”. This molecule also registered an IC50 on GST-PBD367-603 of Plk1 (FP - IC50 (μM), Table S3) of 18.4 ± 10.2 µM. At GST-PBD367-603 of Plk1 (IC50 in FP, GST-PBD367-603 38 nM, 1 h pre-incubation, FITC-phosphopeptide 10 nM, Fig. 4C), the IC50 was ~16 µM and 16 µM. In addition, the “effect on mitotic index, purchased compounds” value with HEK293T cells is given as “effective”. Also, on Plk1-Map interaction (10-25 μM, 2 h), the “Primary screen Plk1-Map (stable) % Inihibition” value was 67.34% and the “Primary screen Plk1-Map (stable) % Quench RLuc” value is 86.24%. Also, at Plk1-Map interaction (confirmation screen), the “Confirmation Plk1-Map (stable) % Inihibition” value came out at 30.79% and the “Confirmation Plk1-Map (stable) % Quench RLuc” value worked out at 81.37%.
